As a reminder, the melting point is the temperature of the solid-liquid transition.

Take `O=[N+]([O-])c1cnc(Sc2nc(-c3ccc(Cl)cc3)n[nH]2)s1`: the melting point was 181 to 184 °C.

Consider `C[C@@H]1CN(C(=O)OC(C)(C)C)C[C@H]2Cc3cc(F)c(CO)nc3N21`, for which the melting point is 91 to 93 °C.

Regarding `COC(=O)C(Oc1cc(OCc2ccsc2)ccc1C#N)c1ccccc1F` (racemic), the melting point is 104 to 106 °C.

In turn, `Cc1cc(C)c(Nc2nc(C)ccc2S(=O)(=O)c2cccc(O)c2)c(C)c1` had a melting point of 196 to 197 °C.

`OCCCCc1ccc(N2CCOCC2)cc1` gave a melting point of 51 to 52 °C.

For the molecule `Cn1c(-c2ccccc2Sc2nc3ccccc3[nH]2)nc2ccccc21`, the melting point was 246 to 247 °C.

Take `Clc1ccc(-c2c(Cl)nc(Cl)nc2-c2ccccc2)cc1`: the melting point was in the range of 123 to 125 °C.

`CSc1ccc(CC(=O)C(=O)O)cc1`: the melting point was in the range of 165 to 167 °C.

In turn, `CC(C)NCC(O)COc1cccc(-c2oc3ccccc3c2C(=O)c2ccc(Cl)cc2)c1` (centres undefined) displayed a melting point of 53 to 60 °C.

In the case of `CCOC(=O)N1CCC(C(=O)O)=Cc2ccccc21`, the melting point was found to be 176 °C.

In turn, `COC(=O)CCCc1nnc(-c2nccs2)c2cc(OC)ccc12` gave a melting point of 136 to 137 °C.

The molecule `NC(=O)c1ccc2nc(C(=O)NCc3ccnc(OCC4CCOC4)c3)[nH]c(=O)c2c1` (centres undefined) gave a melting point of 237 to 239 °C.

`COc1cc(NC(C)=O)c(Cl)cc1C(=O)N[C@H]1CCN(CCCOc2ccc(F)cc2)C[C@H]1OC` (relative stereo) had a melting point of 176 °C.

As for `c1cn2cnnc2c2cc3c(cc12)OCO3`, the melting point was in the range of 267 to 269 °C.

Turning to `CCCCCc1c(-c2ccc3cc(OC)ccc3c2)n(Cc2ccccc2)c2ccccc12`, the melting point lay within 76 to 80 °C.

`NC(Cc1ccccc1)C(=O)NC1N=C(c2ccccc2)c2ccccc2NC1=O` (centres undefined) came in with a melting point of 208 to 210 °C.

`CCOCCn1c(C)nc2c(N)ncc(C)c21`: the melting point fell in the range of 129 to 130 °C.

As for `COC1CN(CC2CCCO2)CCC1NC(=O)c1cc(Cl)c(N)c2c1OCCC2` (centres undefined), the melting point is 158 °C.

On to `Cc1nn(-c2cc(O)c(Cl)cc2F)c(=O)n1C(F)F`, for which the melting point was 147 to 152 °C.

The molecule `Cn1cc(-c2cc3cccnc3[nH]2)c2ccc(C(=O)O)cc21` had a melting point of 359 to 361 °C.

In turn, `Fc1cccnc1C#CCCc1nc2ccccc2o1` yielded a melting point of 86 to 88 °C.

Turning to `CC(C)(OCc1nn(Cc2ccccc2)c2ccc(Br)cc12)C(=O)O`, the melting point lay in the range of 168 to 170 °C.

The molecule `CCC(OCCc1c2c3c(c(OCc4ccc(-c5ccccc5)cn4)ccc3n1Cc1ccc(Cl)cc1)SC(C)C2)C(=O)O` (centres undefined) yielded a melting point of 159 to 162 °C.

`N#CC1CN1C(=O)c1ccc2c(c1)OCO2` (centres undefined) had a melting point of 95 to 97 °C.

`Cc1oc(-c2ccccc2)nc1COc1ccc2oc(/C=C/CO)cc2c1` had a melting point of 145 to 146 °C.

`CC(C)(O)CN1CCN(c2ccc3nc(-c4cccs4)c(-c4ccncc4)n3n2)CC1` had a melting point of 165 to 168 °C.

`COC(=O)c1ccc(Cl)c(CBr)c1Cl` came in with a melting point of 51 to 54 °C.

As to `O=C1Nc2cc(CN3CC=C(c4ccccc4)CC3)ccc2OC1F` (centres undefined), the melting point turned out to be 239 °C.

Turning to `CC(C)(C)NC(=O)c1nn(-c2c(F)cc(F)cc2F)c2c1C1CCC2C1` (centres undefined), the melting point was 142 to 146 °C.

`CC(C)(C)OC(=O)NCCCON=C(c1ccccc1)c1cc2ccncc2[nH]1` came in with a melting point of 52 to 58 °C.

In turn, `COc1ccc(Cl)c(Oc2c(COCC(O)CO)nc(N3CCOCC3)nc2NS(=O)(=O)c2ccc(C(C)C)cn2)c1` (racemic) registered a melting point of 116 °C.

The molecule `CCCCC(CC)NC1=NS(=O)(=O)c2sc(Cl)cc2N1` (centres undefined) yielded a melting point of 165 to 168 °C.

In turn, `COc1cc2ncc(C#N)c(Nc3ccc4cn[nH]c4c3)c2cc1OC` yielded a melting point of 180 to 183 °C.

`CCOCc1nc2c(N)nc3ccccc3c2n1C[C@@H](O)CO` showed a melting point of 99 to 100 °C.

The record behind these values is a melting point compilation (Tetko et al.; mined from patent text by program, amines drawn as free bases though some values may be those of a salt).
